Test results taken from patent publication US9017645B2, “Homoglutamic acid derivatives” (Piramal Imaging SA, priority 2009, dated 2015).

Columns and labels:
H460 (human NSCLC) cells = assay: Cell uptake of F-18 labeled tracer in H460 cells; type: cell-based; settings: 0.25 MBq, 60 min incubation, PBS 0.1% BSA
Procedure: FIG. 4: Time dependent uptake of (2S)-2-amino-5-[3-[^18F]fluoropropyl]hexanedioic acid was determined. H460 cells were incubated with 0.25 MBq (2S)-2-amino-5-[3-[^18F]fluoropropyl]hexanedioic acid for up to 60 min and the cell-bound fraction was determined after 10, 20, 30 and 60 min)
Cell uptake & Retention of (2S)-2-amino-5-[3-[^18F]fluoropropyl]hexanedioic acid—For determination of the biological activity of (2S)-2-amino-5-[3-[^18F]fluoropropyl]hexanedioic acid, the F-18 labeled compound was used as tracer in a cell uptake experiment using H460 (human NSCLC) cells. Approximately 100.000 cells were incubated with 0.25 MBq (2S)-2-amino-5-[3-[^18F]fluoropropyl]hexanedioic acid for up to 60 minutes in PBS-buffer containing 0.1% BSA and the cell-bound fraction was determined. A time-dependent uptake was observed during the 60 min incubation period. Approximately 20% of applied dose was taken up by the cells during the 60 min incubation period (FIG. 4).

H460 tumor cells = assay: Retention of activity in H460 tumor cells under efflux conditions; type: cell-based, human; settings: H460 cells loaded 30 min, then 30 min incubation in new buffer (efflux conditions)
Procedure: FIG. 5: Retention of (2S)-2-amino-5-[3-[^18F]fluoropropyl]hexanedioic acid in H460 tumor cells. H460 cells were loaded with 0.25 MBq (2S)-2-amino-5-[3-[^18F]fluoropropyl]hexanedioic acid for 30 min in PBS/BSA. After washing, the cells were incubated with new buffer (without radioactivity) for additional 10, 20, 30 min. The release of radioactivity into the supernatant as well as the retention inside the cells was determined.
In a second experiment, the retention of activity in tumor cells was examined. H460 cells were loaded with 0.25 MBq (2S)-2-amino-5-[3-[^18F]fluoropropyl]hexanedioic acid for 30 minutes in PBS/BSA-buffer. After this uptake, the buffer was removed and the cells were washed with PBS. The cells were then incubated with new PBS-buffer (without activity) for up to 30 min. The release of activity into the supernatant as well as the retention of activity inside the cells was examined. It was discovered, that more than 80% of activity were retained in the tumor cells after 30 min incubation under these efflux conditions (see FIG. 5).

[1] = test system: NCI-H460 (human NSCLC) tumor bearing nude-rats; assay: PET imaging in NCI-H460 tumor bearing nude-rats; type: in vivo, nude-rats (RH-Foxn1 nu/nu); settings: 8.35 MBq i.v., PET at 60 min p.i. for 10 min
Procedure: FIG. 6: PET-Imaging of (2S)-2-amino-5-[3-[^18F]fluoropropyl]hexanedioic acid in H460 tumor bearing rats. 8.35 MBq of radioactive tracer was injected i.v. into rats. PET images were obtained using the Siemens Inveon PET/CT scanner from 60 min p.i. for 10 min.
PET imaging. (2S)-2-amino-5-[3-[^18F]fluoropropyl]hexanedioic acid was examined in NCI-H460 (human NSCLC) tumor bearing nude-rats (RH-Foxn1 nu/nu) using PET-Imaging. 8.35 MBq of (2S)-2-amino-5-[3-[^18F]fluoropropyl]hexanedioic acid was injected into the rat. PET images were acquired at 60 min p.i. for 10 min. […] 3.2% of the injected dose was taken up per gram of tumor as was determined by region of interest (ROI) analysis (FIG. 6).

tumor uptake by region of interest (ROI) analysis [1]: 3.2 % of the injected dose per gra
SMILES: N[C@@H](CCC(CCC[18F])C(=O)O)C(=O)O (stereo partly drawn) [(2S)-2-amino-5-[3-[^18F]fluoropropyl]hexanedioic acid]
cell uptake (cell-bound fraction) (H460 (human NSCLC) cells): Approximately 20 % of applied dose
activity retained in the tumor cells (H460 tumor cells): more than 80%
visibility of the tumor in PET images [1]: very well visible
